From patent US20250136607A1 (REGOR PHARMACEUTICALS, INC., priority 2021, published 2025)
Like-named read-outs stand apart in the source and are kept apart here.

How the values were obtained:
[1] = target: Protein arginine deiminase 4 (PAD4) (Homo sapiens, UniProt Q9UM07); assay: PAD4 ammonia release assay; format: biochemical
How it was run: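 Ammonia release from BAEE substrate (2× mix 600 μM) was measured after 60 min at RT, following 15 min enzyme–compound preincubation (PAD4 2× 20 nM; pH 8.0 HEPES, 2 mM CaCl2, TCEP; 1.25% DMSO). Detection used OPA/DTT/EDTA for 120 min. % inhibition was taken versus reference-compound and DMSO controls; IC50 by four-parameter logistic fit.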

[2] = system: Citrullinated Histone H3 in dHL-60 cells (differentiated HL-60); assay: dHL-60 Cit-H3 ELISA assay; format: cell-based, human; details: Homo sapiens, read-out: Average IC50 Abs
Protocol: Cell culture: HL-60 cells were grown in IMDM+20% FBS+1% PS. The suspension cells were split into 1:5 with fresh media every 2-3 days to maintain cell density between 1×10^5 to 1×10^6 viable cells/mL. HL-60 cells differentiation: HL-60 cells were diluted to 1×10^5 cells/mL and differentiated into neutrophil-like cells with 100 mM DMF treatment for 72 hours in flask at 37° C., 5% CO2. dHL-60 Cells plating: • 1) HL-60 cells were collected, and the plate was centrifuged at 1000 rpm for 5 min. • 2) The HL-60 cells were diluted to 1.25×10^6 cells/mL and plated into a 96-well plate with 80 μL/well (i.e., 1×10^5/well). The plate was then incubated in the incubator (5% CO2, 37° C.) for 30 min to allow cells to adhere. Compound treatment: • 1) Preparation of compound serial dilution (source plate 500×, final DMSO concentration: 0.2%): briefly, compounds were dissolved in 100% DMSO to a concentration of 20 mM (the stock solution) and a 3-fold serial dilution with 8-point doses was performed. • 2) A 10× compound solution was pipetted up and down; and 10 μL/well of compounds were added into each well and incubated for 30 min. Stimulation with 25 μM A23187: • 1) A solution of A23187 (250 μM) in complete IMDM (IMDM+10% FBS+1% PS) containing 150 U/mL S7 Nuclease was prepared. The obtained solution was added 10 μL/well into each well and incubated for 3 h in the incubator (5% CO2, 37° C.). • 2) The dHL-60 cells treated with 10 μL/well complete IMDM without A23187 worked as negative control. Sample preparation: • 1) EDTA (0.5 M, 2 μL/well) were added to all the wells to stop the reaction. • 2) The plate was centrifuged at 1000 rpm for 5 min to collect supernatant. • 3) The supernatant was then diluted at least 1:2 before adding to the ELISA plate for citrullinated H3 analysis.
The standard was reconstituted with 2 mL of Assay buffer to 500 ng/mL. The reconstituted standard was relatively unstable at 4° C. and should be used within 3 hr after reconstitution.
• 1) 100 μL of the standards or diluted samples were added to the wells on the ELISA plate. • 2) The plate was covered with Cover Sheet and incubated for 2 h at room temperaturert on an orbital shaker.
On the day of the assay, the reagent was thawed at room temperaturert. For one plate, 1.2 mL of HRP Conjugate were diluted into 10.8 mL of assay buffer. A diluted HRP Conjugate was prepared shortly before use.
• 1) The wells were empties and rinsed four times with 1× wash buffer with 300 μL/well (Low speed). The plate was inverted between wash steps to empty the plate. After the last wash, the inverted plate was gently tapped on absorbent paper to remove the residual wash buffer. • 2) 100 μL of the HRP Conjugate working solution were added to each well of the plate. • 3) The plate was covered with cover sheet and incubated for 1 h at RT on an orbital shaker.
• 1) The wells were empties and rinsed four times with 1× wash buffer with 300 μL/well (low speed). The plate was inverted between wash steps to empty the plate. […] 100 uL of HRP STOP solution were added to each well of the plate.
• 1) Wipe the bottom of the plate with a clean tissue to remove fingerprints, dirt, etc. • 2) Read the plate at a wavelength of 450 nm.
The percent (%) inhibition at each concentration of compound was calculated based on and relative to the signal in the HPE and ZPE wells contained within each assay plate. The HPE wells worked as […], and the ZPE wells didn't contain any compound but rather DMSO (final concentration=0.1%) as […]. The concentrations and % inhibition values for tested compounds were plotted and the concentration of compound required for 50% inhibition (IC50) was determined with a Four-parameter logistic dose response equation. The endpoint value (IC50) for the reference peptide/compound was evaluated in each experiment as a quality control measure. If the endpoint value is within 3-fold of the expected value then the experiment is deemed acceptable. […]

[3] = PAD4 ammonia release assay, BAEE substrate, 60 min at RT, read-out: Average IC50 Abs
[4] = HL-60, 3 h, stimulation with 25 μM A23187 for 3 h
[5] = PAD4 activity comparison, read-out: PAD4 Ammonia assay IC50

Chain of Protein arginine deiminase 4 (PAD4) (Q9UM07 whole entry): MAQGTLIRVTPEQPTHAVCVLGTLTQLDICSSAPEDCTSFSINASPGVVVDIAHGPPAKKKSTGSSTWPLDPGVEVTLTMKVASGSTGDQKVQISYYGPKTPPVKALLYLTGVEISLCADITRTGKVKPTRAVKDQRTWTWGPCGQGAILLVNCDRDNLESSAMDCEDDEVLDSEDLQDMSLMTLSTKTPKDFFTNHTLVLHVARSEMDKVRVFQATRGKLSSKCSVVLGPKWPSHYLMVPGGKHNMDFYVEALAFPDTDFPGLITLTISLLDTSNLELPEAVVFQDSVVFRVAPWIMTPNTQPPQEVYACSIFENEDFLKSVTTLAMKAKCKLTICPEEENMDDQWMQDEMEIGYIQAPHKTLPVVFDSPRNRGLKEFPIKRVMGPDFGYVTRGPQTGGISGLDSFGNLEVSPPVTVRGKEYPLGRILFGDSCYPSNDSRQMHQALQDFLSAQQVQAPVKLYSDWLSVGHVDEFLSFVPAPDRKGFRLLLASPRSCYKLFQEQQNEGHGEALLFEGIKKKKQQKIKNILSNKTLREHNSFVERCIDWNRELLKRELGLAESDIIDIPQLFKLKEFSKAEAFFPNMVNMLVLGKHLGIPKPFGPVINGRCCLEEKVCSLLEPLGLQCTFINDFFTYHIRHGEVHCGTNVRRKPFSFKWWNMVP

| Compound | IC50 [1, 3] [nM] | IC50 [2, 4] [nM] | IC50 [1, 5] [nM] | IC50 ([2]; HL-60, stimulation with 25 μM A23187 for 3 h) [nM] |
| --- | --- | --- | --- | --- |
| CCC1CN(CCC(C)(C)O)c2cccc3cc(-c4nc5cc(C(=O)N6C[C@H]7CC[C@@H]6[C@@H]7N)cc(F)c5n4C)n1c23 (stereo partly drawn) [Example 88, ((1R,4R,7R)-7-amino-2-azabicyclo[2.2.1]heptan-2-yl)(2-(3-ethyl-1-(3-hydroxy-3-methylbutyl)-2,3-dihydro-1H-pyrrolo[1,2,3-de]quinoxalin-5-yl)-7-fluoro-1-methyl-1H-benzo[d]imidazol-5-yl)methanone] | 100 to 500 | 100 to 500 |  |  |
| Cn1c(-c2cc3ccc4cc[nH]c4c3n2CC2CC2)nc2cc(C(=O)N3C[C@H]4CC[C@@H]3[C@@H]4N)cc(F)c21 [Example 148, ((1R,4R,7R)-7-amino-2-azabicyclo[2.2.1]heptan-2-yl)(2-(1-(cyclopropylmethyl)-1,8-dihydropyrrolo[3,2-g]indol-2-yl)-7-fluoro-1-methyl-1H-benzo[d]imidazol-5-yl)methanone] | ≤ 100 | ≤ 100 |  |  |
| CC(C)C1CNc2cccc3cc(-c4nc5cc(C(=O)N6C[C@H]7CC[C@@H]6[C@@H]7N)cc(F)c5n4C)n1c23 (stereo partly drawn) [Example 104, ((1R,4R,7R)-7-amino-2-azabicyclo[2.2.1]heptan-2-yl)(7-fluoro-2-(3-isopropyl-2,3-dihydro-1H-pyrrolo[1,2,3-de]quinoxalin-5-yl)-1-methyl-1H-benzo[d]imidazol-5-yl)methanone] | 100 to 500 | ≤ 100 | 130 |  |
| CCn1cc(Cn2c(-c3cc4cccc5c4n3CCN5CCCO)nc3cc(C(=O)N4C[C@H](N)C[C@@H](F)C4)cc(OC)c32)cn1 [Example 34, ((3R,5R)-3-amino-5-fluoropiperidin-1-yl)(1-((1-ethyl-1H-pyrazol-4-yl)methyl)-2-(1-(3-hydroxypropyl)-2,3-dihydro-1H-pyrrolo[1,2,3-de]quinoxalin-5-yl)-7-methoxy-1H-benzo[d]imidazol-5-yl)methanone] | ≤ 100 |  |  | 500 to 5000 |
| COc1cc(C(=O)N2C[C@H](N)C[C@@H](F)C2)cc2nc(-c3cc4cccc5c4n3CCN5CCCO)n(C)c12 [Example 13] | 100 to 500 | 500 to 5000 |  |  |
| COc1cc(C(=O)N2C[C@H](N)C[C@@H](F)C2)cc2nc(-c3cc4cccc5c4n3C(C)CN5CCCO)n(C)c12 (stereo partly drawn) [Example 64, ((3R,5R)-3-amino-5-fluoropiperidin-1-yl)(2-(1-(3-hydroxypropyl)-3-methyl-2,3-dihydro-1H-pyrrolo[1,2,3-de]quinoxalin-5-yl)-7-methoxy-1-methyl-1H-benzo[d]imidazol-5-yl)methanone] | 100 to 500 | 100 to 500 |  |  |
| COc1cc(C(=O)N2CC[C@@H](N)C2)cc2nc(-c3cc4cccc5c4n3CCN5CCCO)n(C)c12 [Example 15, (R)-(3-aminopyrrolidin-1-yl)(2-(1-(3-hydroxypropyl)-2,3-dihydro-1H-pyrrolo[1,2,3-de]quinoxalin-5-yl)-7-methoxy-1-methyl-1H-benzo[d]imidazol-5-yl)methanone] | > 5000 |  |  |  |
| CCC1CNc2c(Cl)ccc3cc(-c4nc5cc(C(=O)N6C[C@H]7CC[C@@H]6[C@@H]7N)cc(F)c5n4C)n1c23 (stereo partly drawn) [Example 125, ((1R,4R,7R)-7-amino-2-azabicyclo[2.2.1]heptan-2-yl)(2-(9-chloro-3-ethyl-2,3-dihydro-1H-pyrrolo[1,2,3-de]quinoxalin-5-yl)-7-fluoro-1-methyl-1H-benzo[d]imidazol-5-yl)methanone] | > 5000 |  |  |  |
| CC[C@H]1[C@H](C)Nc2cccc3cc(-c4nc5cc(C(=O)N6C[C@H]7CC[C@@H]6[C@@H]7N)cc(F)c5n4C)n1c23 [Example 134, trans-((1R,4R,7R)-7-amino-2-azabicyclo[2.2.1]heptan-2-yl)(2-(3-ethyl-2-methyl-2,3-dihydro-1H-pyrrolo[1,2,3-de]quinoxalin-5-yl)-7-fluoro-1-methyl-1H-benzo[d]imidazol-5-yl)methanone] | > 5000 |  |  |  |
| Cn1c(-c2cc3cccc4c3n2CCN4)nc2cc(C(=O)N3CCC[C@@H](N)C3)ccc21 [Example 166, (R)-(3-aminopiperidin-1-yl)(2-(2,3-dihydro-1H-pyrrolo[1,2,3-de]quinoxalin-5-yl)-1-methyl-1H-benzo[d]imidazol-5-yl)methanone] | > 5000 |  | 9530 |  |
| CC[C@@H]1[C@H](C)Nc2cccc3cc(-c4nc5cc(C(=O)N6C[C@H]7CC[C@@H]6[C@@H]7N)cc(F)c5n4C)n1c23 (single isomer, unassigned) [Example 133] | > 5000 |  |  |  |
| COc1cc(C(=O)N2CCC[C@@H](N)C2)cc2nc(-c3cc4cccc5c4n3CCN5CCCN)n(C)c12 [Example 7] | 500 to 5000 |  |  |  |
| CCC1CNc2nccc3cc(-c4nc5cc(C(=O)N6C[C@H]7CC[C@@H]6[C@@H]7N)cc(F)c5n4C)n1c23 (stereo partly drawn) [Example 135, ((1R,4R,7R)-7-amino-2-azabicyclo[2.2.1]heptan-2-yl)(2-(3-ethyl-4,5-dihydro-3H-2a, 5,6-triazaacenaphthylen-2-yl)-7-fluoro-1-methyl-1H-benzo[d]imidazol-5-yl)methanone] | > 5000 |  |  |  |
| COc1cc(C(=O)N2CCC[C@@H](N)C2)cc2nc(-c3cc4cccc5c4n3CCN5Cc3ccccc3)n(C)c12 [Example 24, (R)-(3-aminopiperidin-1-yl)(2-(1-benzyl-2,3-dihydro-1H-pyrrolo[1,2,3-de]quinoxalin-5-yl)-7-methoxy-1-methyl-1H-benzo[d]imidazol-5-yl)methanone] | > 5000 |  |  |  |
| COc1cc(C(=O)N2CC[C@H](F)[C@H](N)C2)cc2nc(-c3cc4cccc5c4n3CCN5CCCO)n(CC3CC3)c12 [Example 58, ((3R,4S)-3-amino-4-fluoropiperidin-1-yl)(1-(cyclopropylmethyl)-2-(1-(3-hydroxypropyl)-2,3-dihydro-1H-pyrrolo[1,2,3-de]quinoxalin-5-yl)-7-methoxy-1H-benzo[d]imidazol-5-yl)methanone] | 500 to 5000 |  |  |  |
| COc1cc(C(=O)N2C[C@H](N)C[C@@H](F)C2)cc2nc(-c3cc4cccc5c4n3CCN5C(=O)COC(C)=O)n(C)c12 [Example 29, 2-(5-(5-((3R,5R)-3-amino-5-fluoropiperidine-1-carbonyl)-7-methoxy-1-methyl-1H-benzo[d]imidazol-2-yl)-2,3-dihydro-1H-pyrrolo[1,2,3-de]quinoxalin-1-yl)-2-oxoethyl acetate)] | 500 to 5000 |  |  |  |
| COc1cc(C(=O)N2CCC[C@@H](N)C2)cc2nc(-c3cc4cccc5c4n3CCN5CCCOC(=O)NC3CC3)n(C)c12 [Example 27, (R)-3-(5-(5-(3-aminopiperidine-1-carbonyl)-7-methoxy-1-methyl-1H-benzo[d]imidazol-2-yl)-2,3-dihydro-1H-pyrrolo[1,2,3-de]quinoxalin-1-yl)propyl cyclopropylcarbamate] | 500 to 5000 |  |  |  |
